Test results as given in ChEMBL document CHEMBL4052725, “Synthesis and biological evaluation of novel steroidal 5α,8α-epidioxyandrost-6-ene-3β-ol-17-(O-phenylacetamide)oxime derivatives as potential anticancer agents” (Bioorg Med Chem Lett, 2017).

What was measured:
MDA-MB-231 = experiment: Antiproliferative activity against human MDA-MB-231 cells after 48 hrs by MTT assay; format: functional, cell-based; conditions: MDA-MB-231, 48 h
MCF7 = experiment: Antiproliferative activity against human MCF7 cells after 48 hrs by MTT assay; format: functional, cell-based; conditions: MCF7, 48 h
HepG2 = experiment: Antiproliferative activity against human HepG2 cells after 48 hrs by MTT assay; format: functional, cell-based; conditions: HepG2, 48 h
SK-HEP1 = experiment: Antiproliferative activity against human SKHEP1 cells after 48 hrs by MTT assay; format: functional, cell-based; conditions: SK-HEP1, 48 h
[1] = Drug localization in mitochondria of human HepG2 cells at 10 uM after 30 mins by Rh123 green dye-based confocal laser scanning microscopic analysis; format: ADME; conditions: 0.5 h
[2] = Drug localization in human HepG2 cells at 10 uM after 2 hrs by confocal laser scanning microscopic analysis; format: ADME, cell-based; conditions: hepg2, 2 h

Row | Compound | IC50 (MDA-MB-231) | IC50 (MCF7) | IC50 (HepG2) | IC50 (SK-HEP1) | Drug uptake [1] | Drug uptake [2]
1 | CC(C)c1ccc(NC(=O)CO/N=C2\CC[C@H]3C4=CC=C5C[C@@H](O)CC[C@]5(C)[C@H]4CC[C@]23C)cc1 | 35 µM | 31.6 µM | 26.7 µM | 23.2 µM | – | –
2 | C[C@]12CC[C@@H]3[C@]4(C=C[C@]5(C[C@@H](O)CC[C@]35C)OO4)[C@@H]1CC/C2=N\OCC(=O)Nc1cccc(F)c1 | 26.3 µM | 29.5 µM | 40.5 µM | 37.6 µM | – | –
3 | C[C@]12CC[C@H](O)CC1=CC=C1[C@@H]2CC[C@]2(C)/C(=N/OCC(=O)Nc3ccccc3)CC[C@@H]12 | > 80 µM | > 80 µM | > 80 µM | 73.8 µM | – | –
4 | Cc1cccc(NC(=O)CO/N=C2\CC[C@H]3[C@@]45C=C[C@]6(C[C@@H](O)CC[C@]6(C)[C@@H]4CC[C@]23C)OO5)c1 | 45.5 µM | 41.6 µM | 35.4 µM | 30.6 µM | – | –
5 | C[C@]12CC[C@@H]3[C@]4(C=C[C@]5(C[C@@H](O)CC[C@]35C)OO4)[C@@H]1CC/C2=N\OCC(=O)Nc1cccc(Cl)c1 | 29.5 µM | 34.4 µM | 15.4 µM | 22.8 µM | – | –
6 | C[C@]12CC[C@H](O)CC1=CC=C1[C@@H]2CC[C@]2(C)/C(=N/OCC(=O)Nc3cccc(C(F)(F)F)c3)CC[C@@H]12 | 19.4 µM | 21.3 µM | 14.4 µM | 16.5 µM | – | –
7 | COc1ccc(NC(=O)CO/N=C2\CC[C@H]3[C@@]45C=C[C@]6(C[C@@H](O)CC[C@]6(C)[C@@H]4CC[C@]23C)OO5)cc1 | 46.4 µM | 52.2 µM | 49.5 µM | 41.4 µM | – | –
8 | C[C@]12CC[C@@H]3[C@]4(C=C[C@]5(C[C@@H](O)CC[C@]35C)OO4)[C@@H]1CC/C2=N\OCC(=O)Nc1ccc(Cl)cc1 | 14.2 µM | 19.5 µM | 14.8 µM | 11.1 µM | – | –
9 | C#Cc1cccc(NC(=O)CO/N=C2\CC[C@H]3[C@@]45C=C[C@]6(C[C@@H](O)CC[C@]6(C)[C@@H]4CC[C@]23C)OO5)c1 | 25.1 µM | 31.6 µM | 44.2 µM | 38.2 µM | – | –
10 | Cc1ccc(NC(=O)CO/N=C2\CC[C@H]3[C@@]45C=C[C@]6(C[C@@H](O)CC[C@]6(C)[C@@H]4CC[C@]23C)OO5)cc1Cl | 17.5 µM | 22.7 µM | 9.3 µM | 12.1 µM | – | –
11 | Cc1ccc(NC(=O)CO/N=C2\CC[C@H]3C4=CC=C5C[C@@H](O)CC[C@]5(C)[C@H]4CC[C@]23C)cc1Cl | 29.2 µM | 34.3 µM | 17.8 µM | 19.8 µM | – | –
12 | CCN(CC)c1ccc2cc(C(=O)NCC(=O)OC3CC[C@]4(C)[C@@H]5CC[C@]6(C)/C(=N/OCC(=O)Nc7ccc(C(C)C)cc7)CC[C@H]6[C@@]56C=C[C@]4(C3)OO6)c(=O)oc2c1 (some centres undefined) | 7.22 µM | 9.64 µM | 8.4 µM | 7.52 µM | Active | Active
13 | C[C@]12CC[C@@H]3[C@]4(C=C[C@]5(C[C@@H](O)CC[C@]35C)OO4)[C@@H]1CC/C2=N\OCC(=O)Nc1ccc(F)cc1 | 12.7 µM | 14.5 µM | 15.8 µM | 10.7 µM | – | –
14 | COc1cccc(NC(=O)CO/N=C2\CC[C@H]3C4=CC=C5C[C@@H](O)CC[C@]5(C)[C@H]4CC[C@]23C)c1 | 59.3 µM | > 80 µM | 70.6 µM | > 80 µM | – | –
15 | C[C@]12CC[C@@H]3[C@]4(C=C[C@]5(C[C@@H](O)CC[C@]35C)OO4)[C@@H]1CC/C2=N\OCC(=O)Nc1cccc(C(F)(F)F)c1 | 20.4 µM | 23.1 µM | 13.5 µM | 15.6 µM | – | –
16 | C[C@]12CC[C@@H]3[C@]4(C=C[C@]5(C[C@@H](O)CC[C@]35C)OO4)[C@@H]1CC/C2=N\OCC(=O)Nc1ccccc1 | 74.2 µM | > 80 µM | 48.3 µM | 60.4 µM | – | –
17 | Cc1ccc(NC(=O)CO/N=C2\CC[C@H]3[C@@]45C=C[C@]6(C[C@@H](O)CC[C@]6(C)[C@@H]4CC[C@]23C)OO5)cc1 | > 80 µM | 62.2 µM | 38.3 µM | 46.3 µM | – | –
18 | CC(C)[C@@H](C)/C=C/[C@@H](C)[C@H]1CC[C@@H]2[C@]1(C)CC[C@@H]1[C@]23C=C[C@]2(C[C@@H](O)CC[C@]12C)OO3 | 19.2 µM | 23.3 µM | 15.8 µM | 17.2 µM | – | –
19 | C[C@]12CC[C@@H]3[C@]4(C=C[C@]5(C[C@@H](O)CC[C@]35C)OO4)[C@@H]1CC/C2=N\OCC(=O)Nc1ccc(Br)cc1 | 37.5 µM | 40.3 µM | 29.9 µM | 24.4 µM | – | –
20 | C[C@]12CC[C@H](O)CC1=CC=C1[C@@H]2CC[C@]2(C)/C(=N/OCC(=O)Nc3cccc(Cl)c3)CC[C@@H]12 | 33.5 µM | 42.1 µM | 22.7 µM | 26.6 µM | – | –
21 | COc1cccc(NC(=O)CO/N=C2\CC[C@H]3[C@@]45C=C[C@]6(C[C@@H](O)CC[C@]6(C)[C@@H]4CC[C@]23C)OO5)c1 | 57.3 µM | 43.2 µM | 44.9 µM | 50.2 µM | – | –
22 | CC(C)c1ccc(NC(=O)CO/N=C2\CC[C@H]3[C@@]45C=C[C@]6(C[C@@H](O)CC[C@]6(C)[C@@H]4CC[C@]23C)OO5)cc1 | 15.8 µM | 20.4 µM | 12.1 µM | 14.6 µM | – | –
23 | C[C@]12CC[C@@H]3[C@]4(C=C[C@]5(C[C@@H](O)CC[C@]35C)OO4)[C@@H]1CC/C2=N\OCC(=O)Nc1ccc(F)c(Cl)c1 | 24.6 µM | 26.2 µM | 11.3 µM | 14.3 µM | – | –
